According to patent EP2530078A1, “THIAZOLE DERIVATIVE” (Takeda Pharmaceutical Company Limited, priority 2010, dated 2011):
Where a name gives a salt, the structure may show the parent alone.

Biological target: T1, human GPR52 (Homo sapiens, UniProt Q9Y2T5)
T1 construct: expressed in transfected cells; host or cells: CHO(dhfr-) cells
Experiment: Increase of intracellular cAMP concentration in human GPR52-expressing CHO cell (AlphaScreen cAMP assay)
Format: cell-based
Conditions: test compound 10 µm, 37°C, 30 min, human GPR52-expressing CHO(dhfr-) cells, 100% = cAMP with 1 µM N-(2-hydroxyethyl)-3-[2-[3-(trifluoromethyl)benzyl]-1-benzofuran-4-yl]benzamide, 0% = DMSO; for activation at 10 µM: 0.5 h, read-out: GPR52 agonist activity (%)
Protocol: Increase of intracellular cAMP concentration in human GPR52-expressing CHO cell
Using OptiPlate-384 (PerkinElmer Inc.), 1×10^4 human GPR52-expressing CHO(dhfr-) cells were incubated together with a test compound ([…]) in an assay buffer (30 µL, HBSS (containing Ca^2+ and Mg^2+), 0.5% BSA, 100 µM IBMX, 100 µM Ro20-1724, 5 mM HEPES (pH 7.55)) at 37°C for 30 min. Thereafter, according to the protocol of AlphaScreen cAMP Assay Kit (PerkinElmer Inc.), the intracellular cAMP concentration was measured by EnVision (PerkinElmer Inc.). The GPR52 agonist activity was calculated, assuming the intracellular cAMP concentration in the presence of 1 µM N-(2-hydroxyethyl)-3-[2-[3-(trifluoromethyl)benzyl]-1-benzofuran-4-yl]benzamide to be 100% and assuming the intracellular cAMP concentration when DMSO was added instead of the test compound to be 0%.

T1 sequence (Q9Y2T5 whole entry): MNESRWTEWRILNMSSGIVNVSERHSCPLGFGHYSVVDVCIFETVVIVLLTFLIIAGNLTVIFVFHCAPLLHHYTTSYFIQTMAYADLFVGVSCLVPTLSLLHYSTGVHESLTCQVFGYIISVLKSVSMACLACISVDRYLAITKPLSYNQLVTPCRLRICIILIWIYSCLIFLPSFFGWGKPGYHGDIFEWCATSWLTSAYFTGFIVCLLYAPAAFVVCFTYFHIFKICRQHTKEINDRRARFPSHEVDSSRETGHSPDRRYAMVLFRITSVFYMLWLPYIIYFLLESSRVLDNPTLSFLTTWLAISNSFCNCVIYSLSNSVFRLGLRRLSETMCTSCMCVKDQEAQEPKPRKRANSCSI

| Structure (SMILES) | activation at 10 µM [%] | GPR52 agonist activity (%) |
| --- | --- | --- |
| COCCn1nccc1C(=O)Nc1sc(Cc2cc(F)cc(Cl)c2)nc1C [Example 161, N-[2-(3-chloro-5-fluorobenzyl)-4-methyl-1,3-thiazol-5-yl]-1-(2-methoxyethyl)-1-pyrazole-5-carboxamide] | 81 | – |
| Cc1cccc(Cc2nc(C)c(NC(=O)c3ccnn3C)s2)c1 [Example 221, 1-methyl-N-[4-methyl-2-(3-methylbenzyl)-1,3-thiazol-5-yl]-1H-pyrazole-5-carboxamide] | 90 | – |
| Cc1nc(Cc2cc(F)cc(Cl)c2)sc1NC(=O)c1cc([S+](C)[O-])nn1C (stereo not drawn) [Example 247, N-[2-(3-chloro-5-fluorobenzyl)-4-methyl-1,3-thiazol-5-yl]-1-methyl-3-(methylsulfinyl)-1H-pyrazole-5-carboxamide] | 69 | – |
| Cc1nc(Cc2ccc(F)c(F)c2)sc1NC(=O)c1ccnn1C [Example 160, N-[2-(3,4-difluorobenzyl)-4-methyl-1,3-thiazol-5-yl]-1-methyl-1H-pyrazole-5-carboxamide] | 74 | – |
| CCc1nc(Cc2cccc(C(F)(F)F)c2)sc1NC(=O)c1ccnn1C [Example 11, N-{4-ethyl-2-[3-(trifluoromethyl)benzyl]-1,3-thiazol-5-yl}-1-methyl-1H-pyrazole-5-carboxamide] | 92 | – |
| Cc1nc(Cc2cc(F)cc(Cl)c2)sc1NC(=O)C1CCS(=O)(=O)C1 (stereo not drawn) [Example 216, N-[2-(3-chloro-5-fluorobenzyl)-4-methyl-1,3-thiazol-5-yl]-tetrahydrothiophene-3-carboxamide 1,1-dioxide] | 77 | – |
| CC(=O)N1CCC(C(=O)Nc2sc(Cc3cccc(C(F)(F)F)c3)nc2C)C1 (stereo not drawn) [Example 21, 1-acetyl-N-{4-methyl-2-[3-(trifluoromethyl)benzyl]-1,3-thiazol-5-yl}pyrrolidine-3-carboxamide] | 69 | – |
| Cc1nc(Cc2cc(F)cc(Cl)c2)sc1NC(=O)c1cc([N+](=O)[O-])nn1C [Example 158, N-[2-(3-chloro-5-fluorobenzyl)-4-methyl-1,3-thiazol-5-yl]-1-methyl-3-nitro-1H-pyrazole-5-carboxamide] | 69 | – |
| Cc1nc(Cc2cc(F)cc(Cl)c2)sc1NC(=O)c1cnn(C)c1 [Example 171, N-[2-(3-chloro-5-fluorobenzyl)-4-methyl-1,3-thiazol-5-yl]-1-methyl-1H-pyrazole-4-carboxamide] | 70 | – |
| Cc1nc(Cc2cc(F)cc(Cl)c2)sc1NC(=O)c1ccc(=O)n(C)c1 [Example 167, N-[2-(3-chloro-5-fluorobenzyl)-4-methyl-1,3-thiazol-5-yl]-1-methyl-6-oxo-1,6-dihydropyridine-3-carboxamide] | 70 | – |
| Cc1nc(Cc2cc(F)cc(C3CC3)c2)sc1NC(=O)c1ccnn1C [Example 249, N-[2-(3-cyclopropyl-5-fluorobenzyl)-4-methyl-1,3-thiazol-5-yl]-1-methyl-1H-pyrazole-5-carboxamide] | 99 | – |
| Cc1nc(Cc2cc(F)cc(Cl)c2)sc1NC(=O)c1nc([N+](=O)[O-])cn1C [Example 169, N-[2-(3-chloro-5-fluorobenzyl)-4-methyl-1,3-thiazol-5-yl]-1-methyl-4-nitro-1H-imidazole-2-carboxamide] | 76 | – |
| Cc1nc(Cc2cccc(C(F)(F)F)c2)sc1NC(=O)C1CCNC1 (stereo not drawn) [Example 20, N-{4-methyl-2-[3-(trifluoromethyl)benzyl]-1,3-thiazol-5-yl}pyrrolidine-3-carboxamide hydrochloride] | – | 74 |
| Cc1nc(Cc2cc(F)cc(Cl)c2)sc1NC(=O)c1ncn(C)c1C [Example 180, N-[2-(3-chloro-5-fluorobenzyl)-4-methyl-1,3-thiazol-5-yl]-1,5-dimethyl-1H-imidazole-4-carboxamide] | 75 | – |
| Cn1nccc1C(=O)Nc1cnc(Cc2cccc(C(F)(F)F)c2)s1 [Example 1, 1-methyl-N-{2-[3-(trifluoromethyl)benzyl]-1,3-thiazol-5-yl}-1H-pyrazole-5-carboxamide] | 92 | – |
| Cc1nc(Cc2cc(F)cc(Cl)c2)sc1NC(=O)c1cccn1C [Example 185, N-[2-(3-chloro-5-fluorobenzyl)-4-methyl-1,3-thiazol-5-yl]-1-methyl-1H-pyrrole-2-carboxamide] | 81 | – |
| Cc1nc(Cc2cc(F)cc(Cl)c2)sc1NC(=O)c1cc(CN2CCOCC2)nn1C [Example 238, N-[2-(3-chloro-5-fluorobenzyl)-4-methyl-1,3-thiazol-5-yl]-1-methyl-3-(morpholinomethyl)-1H-pyrazole-5-carboxamide monohydrochloride] | 80 | – |
| Cc1nc(Cc2cc(F)cc(Cl)c2)sc1NC(=O)c1ccnn1CC(N)=O [Example 234, 1-(carbamoylmethyl)-N-[2-(3-chloro-5-fluorobenzyl)-4-methyl-1,3-thiazol-5-yl]-1H-pyrazole-5-carboxamide] | 78 | – |
| Cc1nc(Cc2cc(F)cc(Cl)c2)sc1NC(=O)c1ccnn1CC(F)(F)F [Example 163, N-[2-(3-chloro-5-fluorobenzyl)-4-methyl-1,3-thiazol-5-yl]-1-(2,2,2-trifluoroethyl)-1H-pyrazole-5-carboxamide] | 78 | – |
| COc1cccc(Cc2nc(C)c(NC(=O)c3ccnn3C)s2)c1 [Example 219, N-[2-(3-methoxybenzyl)-4-methyl-1,3-thiazol-5-yl]-1-methyl-1H-pyrazole-5-carboxamide] | 82 | – |
| Cc1nc(Cc2ccc(F)c(Cl)c2)sc1NC(=O)c1ccnn1C [Example 156, N-[2-(3-chloro-4-fluorobenzyl)-4-methyl-1,3-thiazol-5-yl]-1-methyl-1H-pyrazole-5-carboxamide] | 76 | – |
| Cn1nccc1C(=O)Nc1sc(Cc2cccc(C(F)(F)F)c2)nc1C(F)(F)F [Example 17, 1-methyl-N-{4-(trifluoromethyl)-2-[3-(trifluoromethyl)benzyl]-1,3-thiazol-5-yl}-1H-pyrazole-5-carboxamide] | 94 | – |
| Cc1nc(Cc2cc(F)cc(Cl)c2)sc1NC(=O)c1ccnn1C(C)C [Example 151, N-[2-(3-chloro-5-fluorobenzyl)-4-methyl-1,3-thiazol-5-yl]-1-(1-methylethyl)-1H-pyrazole-5-carboxamide] | 69 | – |
| Cc1nc(Cc2cc(F)cc(Cl)c2)sc1NC(=O)c1cc(CO)nn1C [Example 166, N-[2-(3-chloro-5-fluorobenzyl)-4-methyl-1,3-thiazol-5-yl]-3-(hydroxymethyl)-1-methyl-1H-pyrazole-5-carboxamide] | 88 | – |
| Cc1nc(Cc2cc(F)cc(Cl)c2)sc1NC(=O)c1c(C)ncn1C [Example 179, N-[2-(3-chloro-5-fluorobenzyl)-4-methyl-1,3-thiazol-5-yl]-1,4-dimethyl-1H-imidazole-5-carboxamide] | 80 | – |
| Cc1nc(Cc2cc(F)cc(Cl)c2)sc1NC(=O)C1(S(C)(=O)=O)CC1 [Example 172, N-[2-(3-chloro-5-fluorobenzyl)-4-methyl-1,3-thiazol-5-yl]-1-(methylsulfonyl)cyclopropanecarboxamide] | 89 | – |
| Cc1nc(Cc2cc(F)cc(Cl)c2)sc1NC(=O)c1cccc(S(C)(=O)=O)c1 [Example 228, N-[2-(3-chloro-5-fluorobenzyl)-4-methyl-1,3-thiazol-5-yl]-3-(methylsulfonyl)benzamide] | 69 | – |
